This series is described as follows: Stability study: assay and related substances by gradient HPLC. It is filed as physicochemical. The method, then: The stability of the exemplary compositions was investigated using gradient high performance liquid chromatography analysis at different storage time points of 1 month, 3 months, 6 months, 9 months, and 11 months. The amount of each active ingredient and related degradation substances, pH, osmolality, particle size distribution, and viscosity were measured for each composition at each time point.
The suspension slurry was not irradiation sterilized in the preparation of Panel 1 formulations.
The results of the Panel II stability studies at the accelerated condition (40° C.) for the compositions shown in Table 4 are summarized in Table 6. The suspension slurry of Panel 2 formulations F7, F8, and F9 were irradiation sterilized.

Consider `O=C(c1ccccc1)c1ccc2n1CCC2C(=O)O` (centres unmarked) [Ketorolac tromethamine, 2-amino-2-(hydroxymethyl)propane-1,3-diol; 5-benzoyl-2,3-dihydro-1H-pyrrolizine-1-carboxylic acid], for which the “Stability of ketorolac tromethamine in the compositions” value (all compositions of the stability studies) is “exhibited stability”. On to `CCOC(=O)O[C@]1(C(=O)OCCl)CC[C@H]2[C@@H]3CCC4=CC(=O)C=C[C@]4(C)[C@H]3[C@@H](O)C[C@@]21C` [loteprednol etabonate, chloromethyl (8S,9S,10R,11S,13S,14S,17R)-17-ethoxycarbonyloxy-11-hydroxy-10,13-dimethyl-3-oxo-7,8,9,11,12,14,15,16-octahydro-6H-cyclopenta[a]phenanthrene-17-carboxylate], for which the “Degradation of loteprednol etabonate” value (stability studies) is given as “pH dependency”.

These data come from patent US12599556B2, “Ophthalmic compositions” (BIOTHERAVISION, INC., priority 2021, dated 2026).
